Laboratory results as given in publication PMC5282889 (Bioorganic & medicinal chemistry letters, 2016).

Columns and labels:
[1] = biological target: AChE (Homo sapiens, UniProt P22303); experiment: biochemical; details: read-out: AChE inhibition (%)
[2] = biological target: Aβ (Homo sapiens, UniProt P05067); experiment: Aβ fibrillogenesis, Thioflavin-T; assay type: biochemical; details: for Aβ fibril inhibition (%): Aβ:inhibitor = 1:1 ratio at 100 μM Aβ concentration
[3] = biological target: BuChE (Homo sapiens, UniProt P06276); experiment: Ellman assay, BuChE inhibition; assay type: biochemical; details: read-out: BuChE inhibition (%), tested at 10 μM concentration
Chain of BuChE (P06276 29-602): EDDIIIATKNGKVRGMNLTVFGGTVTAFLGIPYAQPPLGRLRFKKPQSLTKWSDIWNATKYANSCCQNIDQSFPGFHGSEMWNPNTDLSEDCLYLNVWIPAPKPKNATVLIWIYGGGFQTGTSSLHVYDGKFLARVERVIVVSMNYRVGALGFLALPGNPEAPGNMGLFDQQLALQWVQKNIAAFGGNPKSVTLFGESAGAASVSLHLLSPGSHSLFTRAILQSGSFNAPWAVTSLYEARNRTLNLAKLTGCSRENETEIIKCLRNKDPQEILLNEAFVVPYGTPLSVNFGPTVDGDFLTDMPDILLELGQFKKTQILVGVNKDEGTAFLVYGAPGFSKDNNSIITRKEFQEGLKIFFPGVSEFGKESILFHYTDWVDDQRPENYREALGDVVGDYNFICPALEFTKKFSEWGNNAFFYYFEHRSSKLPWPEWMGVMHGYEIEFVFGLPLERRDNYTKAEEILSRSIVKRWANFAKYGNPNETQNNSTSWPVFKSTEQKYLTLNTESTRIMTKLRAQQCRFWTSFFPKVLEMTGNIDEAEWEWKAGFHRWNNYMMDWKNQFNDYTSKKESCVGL

[4] = biological target: Aβ-peptide (Homo sapiens, UniProt P05067); experiment: High resolution mass spectrometry of inhibitor-Aβ complex formation; assay type: binding; details: Aβ-peptide-14 mixture (30 μM to 150 μM); 1:1 and 1:2 complexes observed
Chain of Aβ-peptide (P05067 672-711 limits assumed): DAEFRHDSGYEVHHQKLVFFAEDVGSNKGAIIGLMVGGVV

Chain of AChE (P22303 32-614): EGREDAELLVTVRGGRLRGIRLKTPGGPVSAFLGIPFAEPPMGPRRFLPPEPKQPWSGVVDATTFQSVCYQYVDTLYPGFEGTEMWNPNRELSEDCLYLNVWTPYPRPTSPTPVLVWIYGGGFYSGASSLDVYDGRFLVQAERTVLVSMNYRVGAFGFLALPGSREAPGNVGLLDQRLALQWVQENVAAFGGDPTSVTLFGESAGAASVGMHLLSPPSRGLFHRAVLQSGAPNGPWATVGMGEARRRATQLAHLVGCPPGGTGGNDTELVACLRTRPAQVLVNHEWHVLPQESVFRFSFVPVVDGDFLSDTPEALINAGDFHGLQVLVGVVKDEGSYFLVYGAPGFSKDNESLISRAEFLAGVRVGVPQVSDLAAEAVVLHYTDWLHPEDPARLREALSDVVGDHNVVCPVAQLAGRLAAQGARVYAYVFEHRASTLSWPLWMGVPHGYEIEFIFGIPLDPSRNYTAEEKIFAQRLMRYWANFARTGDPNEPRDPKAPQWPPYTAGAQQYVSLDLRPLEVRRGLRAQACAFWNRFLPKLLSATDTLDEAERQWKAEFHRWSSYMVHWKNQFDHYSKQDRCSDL
Chain of Aβ (P05067 672-711 limits assumed): as the sequence (P05067 672-711 limits assumed) above

Compound | inhibition at 2 µM [1] [%] | EC50 [2] [µM] | inhibition at 10 µM [3] [%] | Complex formation with Aβ peptide (HR-MS) [4] | Aβ fibril inhibition (%) [2] [%]
c1ccc(-c2nccc3c2[nH]c2ccccc23)cc1 [Compound 1] | -12 | – | – | – | –
c1ccc2c(-c3nccc4c3[nH]c3ccccc34)cccc2c1 [Compound 14] | -11 | ~110 | > 80 | forms a complex with the peptide | –
Fc1ccc(-c2nccc3c2[nH]c2ccccc23)cc1 [Compound 6] | – | – | > 80 | – | 39
COc1ccc2[nH]c3c(-c4ccc(C)cc4)nccc3c2c1 [Compound 4] | -15 | – | – | – | –
c1ccc2c(c1)[nH]c1c(C3CCCCC3)nccc12 [Compound 13] | – | – | – | – | −12
